Earlier results as cited in patent US20230228654A1, “Blood Sampling Device and Method for PEth Measurement” (CAPITAINER AB, priority 2020, published 2023).

System: PLD
Settings: Schröck et al, Alcohol 2018; cited from earlier work

Row | SMILES | potency as PLD inhibitor
1 | O=C(NCCN1CCC(n2c(=O)[nH]c3ccccc32)CC1)c1cc2cc(F)ccc2[nH]1 [FIPI, 5-fluoro-2-indolyl-deschlorohalopemide] | low potency
2 | O=C(NCCN1CCC(n2c(=O)[nH]c3cc(Cl)ccc32)CC1)c1ccc(F)cc1 [halopemide] | low potency
